Reference: patent US8415469B2, “Compounds and methods for kinase modulation, and indications therefor” (Plexxikon Inc., priority 2005, dated 2013)

How the values were obtained:
Assay type in all cases: biochemical
[1] = molecular target: T1, Ret (Homo sapiens, UniProt P07949); test: AlphaScreen kinase assay, Ret; conditions: read-out: IC50, activity toward kinase Ret
T1 construct: P1378.pET-SF BI-PTP RET H661-R1012 HIS; made in house
T1 sequence (P07949 with tags, fused parts or gaps): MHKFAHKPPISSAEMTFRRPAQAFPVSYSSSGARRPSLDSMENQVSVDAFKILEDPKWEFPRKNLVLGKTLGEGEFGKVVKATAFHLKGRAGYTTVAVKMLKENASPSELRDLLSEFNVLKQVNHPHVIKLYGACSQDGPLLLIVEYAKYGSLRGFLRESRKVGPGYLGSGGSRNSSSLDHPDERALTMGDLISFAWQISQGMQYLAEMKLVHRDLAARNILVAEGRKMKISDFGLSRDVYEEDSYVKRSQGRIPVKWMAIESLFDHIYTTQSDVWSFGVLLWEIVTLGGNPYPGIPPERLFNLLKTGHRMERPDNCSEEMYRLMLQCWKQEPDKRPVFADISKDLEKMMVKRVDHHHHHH

[2] = molecular target: T2, B-Raf (Homo sapiens, UniProt P15056); test: AlphaScreen kinase assay, B-Raf; conditions: read-out: IC50, activity toward kinase B-Raf
T2 construct: purchased Upstate Biotechnology

[3] = molecular target: T3, B-Raf V600E (Homo sapiens, UniProt P15056, V600E); test: AlphaScreen kinase assay, B-Raf V600E; conditions: read-out: IC50, activity toward kinase B-Raf V600E
T3 construct: P4254. pFastBacBD-CDC37 BRAF D437-K722-X, V600E; His6 with pFastBac HT leader (TEV site) (N); made in house; host or cells: Sf9 (baculovirus; chaperone CDC37 co-expressed)

[4] = molecular target: T4, Fms (Homo sapiens, UniProt P07333); test: AlphaScreen kinase assay, Fms; conditions: read-out: IC50, activity toward kinase Fms
T4 construct: purchased Upstate Biotechnology

[5] = molecular target: T5, Kit (Homo sapiens, UniProt P10721); test: AlphaScreen kinase assay, Kit; conditions: read-out: IC50, activity toward kinase Kit
T5 construct: P1332.N6 BI PTP KIT M552-K948-X COD; His6 (N); made in house; host or cells: E. coli (PTP1B co-expressed)

[6] = molecular target: T6, FGFR1 (Homo sapiens, UniProt P11362, C488A/C584S); test: AlphaScreen kinase assay, FGFR1; conditions: read-out: IC50, activity toward kinase FGFR
T6 construct: P1351.pET N6 BI-PTP FGFR A458-E765-X C488A, C584S; made in house; host or cells: E. coli (PTP1B co-expressed)
T6 sequence (P11362 458-765 C488A/C584S): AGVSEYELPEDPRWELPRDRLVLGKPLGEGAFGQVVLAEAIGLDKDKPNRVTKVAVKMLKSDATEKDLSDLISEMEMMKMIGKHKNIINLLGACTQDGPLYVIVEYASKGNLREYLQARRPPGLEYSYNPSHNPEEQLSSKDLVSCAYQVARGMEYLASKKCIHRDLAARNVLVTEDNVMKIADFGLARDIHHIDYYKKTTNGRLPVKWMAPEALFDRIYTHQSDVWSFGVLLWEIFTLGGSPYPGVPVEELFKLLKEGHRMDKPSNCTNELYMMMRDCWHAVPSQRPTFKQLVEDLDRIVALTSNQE

T3 sequence (P15056 with tags, fused parts or gaps V600E): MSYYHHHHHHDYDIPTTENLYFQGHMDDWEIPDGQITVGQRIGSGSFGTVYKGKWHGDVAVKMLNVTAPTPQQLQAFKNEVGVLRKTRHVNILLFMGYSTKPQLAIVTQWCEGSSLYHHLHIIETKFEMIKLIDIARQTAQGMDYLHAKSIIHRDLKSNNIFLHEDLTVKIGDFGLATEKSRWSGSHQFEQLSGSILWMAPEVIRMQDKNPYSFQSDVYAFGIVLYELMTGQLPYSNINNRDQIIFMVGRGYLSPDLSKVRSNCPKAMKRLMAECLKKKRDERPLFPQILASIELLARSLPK
T5 sequence (P10721 with tags, fused parts or gaps): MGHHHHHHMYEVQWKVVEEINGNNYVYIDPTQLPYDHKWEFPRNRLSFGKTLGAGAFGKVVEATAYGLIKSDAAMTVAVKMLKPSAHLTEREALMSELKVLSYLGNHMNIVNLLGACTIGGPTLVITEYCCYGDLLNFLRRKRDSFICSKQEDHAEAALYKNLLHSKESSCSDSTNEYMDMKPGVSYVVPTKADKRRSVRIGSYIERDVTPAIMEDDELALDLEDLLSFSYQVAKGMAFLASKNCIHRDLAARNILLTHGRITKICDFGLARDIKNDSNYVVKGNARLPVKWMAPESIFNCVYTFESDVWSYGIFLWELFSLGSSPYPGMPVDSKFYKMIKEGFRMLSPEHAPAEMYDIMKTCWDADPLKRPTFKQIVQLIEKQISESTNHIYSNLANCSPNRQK
T4 sequence (P07333 20-972): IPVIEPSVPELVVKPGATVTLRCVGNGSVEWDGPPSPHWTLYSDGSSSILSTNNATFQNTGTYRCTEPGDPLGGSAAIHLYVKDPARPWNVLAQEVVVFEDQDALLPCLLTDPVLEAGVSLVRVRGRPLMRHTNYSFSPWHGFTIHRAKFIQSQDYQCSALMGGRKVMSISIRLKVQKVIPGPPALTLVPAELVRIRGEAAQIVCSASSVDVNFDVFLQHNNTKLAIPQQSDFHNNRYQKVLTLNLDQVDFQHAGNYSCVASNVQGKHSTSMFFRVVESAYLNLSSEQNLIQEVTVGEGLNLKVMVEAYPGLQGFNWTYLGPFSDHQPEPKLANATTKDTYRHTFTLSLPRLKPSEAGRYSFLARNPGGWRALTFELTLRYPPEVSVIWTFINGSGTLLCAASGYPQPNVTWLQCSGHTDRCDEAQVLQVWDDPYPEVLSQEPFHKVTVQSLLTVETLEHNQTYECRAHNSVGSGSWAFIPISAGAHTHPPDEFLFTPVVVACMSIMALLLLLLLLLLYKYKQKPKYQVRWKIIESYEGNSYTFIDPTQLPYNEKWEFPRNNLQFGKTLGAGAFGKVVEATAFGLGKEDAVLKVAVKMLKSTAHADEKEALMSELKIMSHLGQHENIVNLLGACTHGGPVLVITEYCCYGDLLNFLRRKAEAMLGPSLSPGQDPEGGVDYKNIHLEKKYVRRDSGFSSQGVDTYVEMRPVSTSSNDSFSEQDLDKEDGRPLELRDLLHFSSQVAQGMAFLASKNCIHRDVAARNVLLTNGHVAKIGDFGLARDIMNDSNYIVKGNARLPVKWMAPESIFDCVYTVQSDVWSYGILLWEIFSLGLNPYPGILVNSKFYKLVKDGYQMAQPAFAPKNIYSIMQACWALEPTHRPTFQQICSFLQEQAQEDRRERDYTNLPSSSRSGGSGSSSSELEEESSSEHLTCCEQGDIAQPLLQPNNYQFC
T2 sequence (P15056 whole entry): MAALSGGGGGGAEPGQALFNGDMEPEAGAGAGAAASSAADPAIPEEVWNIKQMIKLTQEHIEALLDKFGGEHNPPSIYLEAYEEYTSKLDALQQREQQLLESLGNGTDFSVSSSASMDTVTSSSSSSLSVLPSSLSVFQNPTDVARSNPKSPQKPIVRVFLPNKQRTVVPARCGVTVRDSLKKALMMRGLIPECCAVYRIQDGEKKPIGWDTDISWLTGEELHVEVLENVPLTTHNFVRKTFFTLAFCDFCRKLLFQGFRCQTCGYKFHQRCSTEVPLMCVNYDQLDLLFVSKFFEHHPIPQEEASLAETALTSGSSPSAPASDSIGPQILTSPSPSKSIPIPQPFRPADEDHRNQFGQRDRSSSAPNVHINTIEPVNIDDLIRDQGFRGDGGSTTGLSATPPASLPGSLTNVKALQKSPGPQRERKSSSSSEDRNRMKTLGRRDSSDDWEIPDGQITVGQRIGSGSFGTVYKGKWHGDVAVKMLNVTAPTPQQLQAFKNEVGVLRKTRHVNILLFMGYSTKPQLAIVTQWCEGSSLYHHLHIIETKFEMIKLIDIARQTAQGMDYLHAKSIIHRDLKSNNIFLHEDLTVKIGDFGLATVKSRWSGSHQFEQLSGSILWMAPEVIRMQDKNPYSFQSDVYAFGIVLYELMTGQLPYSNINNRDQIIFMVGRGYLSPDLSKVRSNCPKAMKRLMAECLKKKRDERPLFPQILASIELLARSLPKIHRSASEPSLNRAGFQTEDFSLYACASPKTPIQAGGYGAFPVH

`CC(=O)Nc1cccc(-c2ccnc3[nH]cc(C(=O)c4ccc(Cl)cc4)c23)c1` [Compound P-1075] showed an IC50 [1] of no more than 10 µM.
For `CCCS(=O)(=O)Nc1ccc(F)c(C(=O)c2c[nH]c3ncc(-c4ccc(OCCOC)cc4)cc23)c1F` [Compound P-1998, Propane-1-sulfonic acid (2,4-difluoro-3-{5-[4-(2-methoxy-ethoxy)-phenyl]-1H-pyrrolo[2,3-b]pyridine-3-carbonyl}-phenyl)-amide], the IC50 [2] was no more than 10 µM, the IC50 [3] was no more than 10 µM and the IC50 [4] was no more than 10 µM. It also gave an IC50 [5] of no more than 10 µM.
In the case of `CS(=O)(=O)c1cccc(-c2ccnc3[nH]cc(C(=O)c4ccc(Cl)cc4)c23)c1` [Compound P-1198], the IC50 [1] is reported as no more than 10 µM.
Work on `CC(=O)Nc1cccc(-c2ccnc3[nH]cc(C(=O)c4cc(F)ccc4C)c23)c1` [Compound P-1126] yielded an IC50 [1] of no more than 10 µM.
In the case of `Fc1cnc(F)c(F)c1Cc1c[nH]c2ncc(-c3ccsc3)cc12` [Compound P-0596], the IC50 [1] is reported as no more than 10 µM.
`Cc1cc(C(=O)c2c[nH]c3ncc(Br)cc23)no1` [Compound P-0608] gave an IC50 [1] of no more than 10 µM.
With `Cc1cc(C(=O)c2c[nH]c3nccc(-c4ccc(Cl)cc4)c23)no1` [Compound P-1178] the IC50 [1] was no more than 10 µM.
`O=S(=O)(NCc1c[nH]c2ncccc12)c1cc(Br)cc(Cl)n1` [Compound P-0726] was tested, and the IC50 [1] was no more than 10 µM.
With `CCCS(=O)(=O)Nc1ccc(F)c(C(=O)c2c[nH]c3ncc(-c4cc(C)c(C#N)c(C)c4)cc23)c1F` [Compound P-1980, Propane-1-sulfonic acid {3-[5-(4-cyano-3,5-dimethyl-phenyl)-1H-pyrrolo[2,3-b]pyridine-3-carbonyl]-2,4-difluoro-phenyl}-amide] the IC50 [2] was no more than 10 µM, the IC50 [3] was no more than 10 µM and the IC50 [4] was no more than 10 µM. It also gave an IC50 [5] of no more than 10 µM.
`CS(=O)(=O)Nc1cccc(-c2ccnc3[nH]cc(C(=O)c4ccc(Cl)cc4)c23)c1` [Compound P-0678] was tested, and the IC50 [1] was no more than 10 µM.
`Cc1ccccc1C(=O)c1c[nH]c2nccc(-c3cccc(S(C)(=O)=O)c3)c12` [Compound P-1200] showed an IC50 [1] of no more than 10 µM.
Work on `Cc1ccc(F)cc1C(=O)c1c[nH]c2nccc(-c3cccc(N)c3)c12` [Compound P-1135] yielded an IC50 [1] of no more than 10 µM.
Compound `Cc1cc(C(=O)c2c[nH]c3ncc(-c4cccc(/C=C/C(=O)O)c4)cc23)no1` [Compound P-1072] has an IC50 [1] of no more than 10 µM.
For `Cc1nc(-c2ccc(S(=O)(=O)NCc3c[nH]c4ncccc34)s2)cs1` [Compound P-0735], the IC50 [1] was no more than 10 µM.
`Cc1ccc(NC(=O)Nc2cccc(C(=O)c3c[nH]c4ncccc34)c2)cc1` [Compound P-1718, 1-[3-(1H-Pyrrolo[2,3-b]pyridine-3-carbonyl)-phenyl]-3-p-tolyl-urea] gave an IC50 [2] of no more than 10 µM, an IC50 [3] of no more than 10 µM and an IC50 [4] of no more than 10 µM. It also gave an IC50 [5] of no more than 10 µM.
In the case of `CS(=O)(=O)c1cccc(-c2ccnc3[nH]cc(C(=O)c4cccc(Cl)c4Cl)c23)c1` [Compound P-1134], the IC50 [1] is reported as no more than 10 µM.
In the case of `COc1cccc(C(=O)c2c[nH]c3nccc(-c4cccc(NS(C)(=O)=O)c4)c23)c1` [Compound P-1185], the IC50 [1] is reported as no more than 10 µM.
`O=C(Nc1ccc(Cl)cc1)Nc1cccc(C(=O)c2c[nH]c3ncccc23)c1` [Compound P-1709, 1-(4-Chloro-phenyl)-3-[3-(1H-pyrrolo[2,3-b]pyridine-3-carbonyl)-phenyl]-urea] was tested, and the IC50 [2] was no more than 10 µM, the IC50 [3] was no more than 10 µM and the IC50 [4] was no more than 10 µM. For the same compound, the IC50 [5] was no more than 10 µM.
Work on `Cc1ccc(F)cc1C(=O)c1c[nH]c2nccc(-c3cccc(S(C)(=O)=O)c3)c12` [Compound P-1129] yielded an IC50 [1] of no more than 10 µM.
In the case of `O=C(c1c(F)ccc(NS(=O)(=O)c2ccc(F)cc2)c1F)c1c[nH]c2ncc(Cl)cc12` [Compound P-1840, N-[3-(5-Chloro-1H-pyrrolo[2,3-b]pyridine-3-carbonyl)-2,4-difluoro-phenyl]-4-fluoro-benzenesulfonamide], the IC50 [2] is reported as no more than 10 µM, the IC50 [3] is reported as no more than 10 µM and the IC50 [4] is reported as no more than 10 µM. The IC50 [5] was no more than 10 µM.
`COc1ccc(-c2ccnc3[nH]cc(C(=O)c4ccccc4C)c23)cn1` [Compound P-0536] showed an IC50 [1] of no more than 10 µM.
Work on `Cc1ccc(F)cc1C(=O)c1c[nH]c2nccc(-c3cccnc3)c12` [Compound P-1121] yielded an IC50 [1] of no more than 10 µM.
Compound `Cc1ccc(F)cc1C(=O)c1c[nH]c2nccc(-c3ccsc3)c12` [Compound P-1189] has an IC50 [1] of no more than 10 µM.
Work on `Cn1cc(-c2cnc3[nH]cc(C(=O)c4c(F)ccc(NS(=O)(=O)c5cccc(F)c5)c4F)c3c2)cn1` [Compound P-1997, N-{2,4-Difluoro-3-[5-(1-methyl-1H-pyrazol-4-yl)-1H-pyrrolo[2,3-b]pyridine-3-carbonyl]-phenyl}-3-fluoro-benzenesulfonamide] yielded an IC50 [2] of no more than 10 µM, an IC50 [3] of no more than 10 µM and an IC50 [4] of no more than 10 µM. It also gave an IC50 [5] of no more than 10 µM.
In the case of `N#Cc1ccc(S(=O)(=O)Nc2ccc(F)c(C(=O)c3c[nH]c4ncc(Cl)cc34)c2F)cc1` [Compound P-1822, N-[3-(5-Chloro-1H-pyrrolo[2,3-b]pyridine-3-carbonyl)-2,4-difluoro-phenyl]-4-cyano-benzenesulfonamide], the IC50 [2] is reported as no more than 10 µM, the IC50 [3] is reported as no more than 10 µM and the IC50 [4] is reported as no more than 10 µM. For the same compound, the IC50 [5] was no more than 10 µM.
`COc1ccc(F)c(C(=O)c2c[nH]c3ncc(Br)cc23)c1` [Compound P-0284] gave an IC50 [2] of no more than 10 µM, an IC50 [3] of no more than 10 µM and an IC50 [6] of no more than 10 µM. The IC50 [4] was no more than 10 µM and the IC50 [5] was no more than 10 µM.
With `Cc1cc(C(=O)c2c[nH]c3ncc(-c4cccc(/C=C/C(=O)O)c4)cc23)nn1C` [Compound P-1137] the IC50 [1] was no more than 10 µM.
With `[O-][S+](c1ccccc1)c1c[nH]c2ncc(Br)cc12` (stereo not shown) [Compound P-1097] the IC50 [1] was no more than 10 µM.
`O=S(=O)(NCc1c[nH]c2ncccc12)C(F)(F)F` [Compound P-0412] was tested, and the IC50 [1] was no more than 10 µM.
`Cc1c(Cl)cc(F)cc1S(=O)(=O)NCc1cc2cccnc2[nH]1` [Compound P-0533] was tested, and the IC50 [1] was no more than 10 µM.
For `COc1ccc(NC(=O)Nc2cccc(C(=O)c3c[nH]c4ncccc34)c2)cc1` [Compound P-1705, 1-(4-Methoxy-phenyl)-3-[3-(1H-pyrrolo[2,3-b]pyridine-3-carbonyl)-phenyl]-urea], the IC50 [2] was no more than 10 µM, the IC50 [3] was no more than 10 µM and the IC50 [4] was no more than 10 µM. The IC50 [5] was no more than 10 µM.
`O=C(c1cccc(Cl)c1Cl)c1c[nH]c2nccc(-c3ccc(Cl)cc3)c12` [Compound P-1130] showed an IC50 [1] of no more than 10 µM.
`Cc1ccccc1C(=O)c1c[nH]c2nccc(-c3ccc(Cl)cc3)c12` [Compound P-1201] gave an IC50 [1] of no more than 10 µM.
With `COCCOc1cnc2[nH]cc(C(=O)c3c(F)ccc(NS(=O)(=O)c4ccc(F)cc4)c3F)c2c1` [Compound P-1872, N-{2,4-Difluoro-3-[5-(2-methoxy-ethoxy)-1H-1-pyrrolo[2,3-b]pyridine-3-carbonyl]-phenyl}-4-fluoro-benzenesulfonamide] the IC50 [2] was no more than 10 µM, the IC50 [3] was no more than 10 µM and the IC50 [4] was no more than 10 µM. The IC50 [5] was no more than 10 µM.
Compound `COc1ccc(-c2ccnc3[nH]cc(C(=O)c4ccccc4F)c23)cn1` [Compound P-0245] has an IC50 [1] of no more than 10 µM.
`Fc1ccc(-c2c(CNCc3ccccc3)[nH]c3ncccc23)cc1` [Compound P-0517] showed an IC50 [1] of no more than 10 µM.
For `O=C(c1ccccc1)c1c[nH]c2ncc(-c3ccsc3)cc12` [Compound P-1193], the IC50 [1] was no more than 10 µM.
For `Cc1ccc(F)cc1C(=O)c1c[nH]c2nccc(-c3ccc(Cl)cc3)c12` [Compound P-1133], the IC50 [1] was no more than 10 µM.
Work on `Cc1ccc(F)cc1C(=O)c1c[nH]c2nccc(-c3cccc(/C=C/C(=O)O)c3)c12` [Compound P-0985] yielded an IC50 [1] of no more than 10 µM.
Work on `Cc1cc(C(=O)c2c[nH]c3nccc(-c4ccc(Cl)cc4)c23)n(C)n1` [Compound P-1196] yielded an IC50 [1] of no more than 10 µM.
For `CS(=O)(=O)Nc1ccc(F)c(C(=O)c2c[nH]c3ncccc23)c1` [Compound P-0881], the IC50 [1] was no more than 10 µM.
For `Cn1cc(-c2cnc3[nH]cc(C(=O)c4c(F)ccc(NS(=O)(=O)c5ccc(C(F)(F)F)cc5)c4F)c3c2)cn1` [Compound P-1996, N-{2,4-Difluoro-3-[5-(1-methyl-1H-pyrazol-4-yl)-1H-pyrrolo[2,3-b]pyridine-3-carbonyl]-phenyl}-4-trifluoromethyl-benzenesulfonamide], the IC50 [2] was no more than 10 µM, the IC50 [3] was no more than 10 µM and the IC50 [4] was no more than 10 µM. The IC50 [5] was no more than 10 µM.
`Cc1cc(C(=O)c2c[nH]c3nccc(-c4cccc(C(N)=O)c4)c23)no1` [Compound P-1036] showed an IC50 [1] of no more than 10 µM.
Work on `O=C(c1c(F)ccc(NS(=O)(=O)c2ccsc2)c1F)c1c[nH]c2ncc(Br)cc12` [Compound P-1798, Thiophene-3-sulfonic acid [3-(5-bromo-1H-pyrrolo[2,3-b]pyridine-3-carbonyl)-2,4-difluoro-phenyl]-amide] yielded an IC50 [2] of no more than 10 µM, an IC50 [3] of no more than 10 µM and an IC50 [4] of no more than 10 µM. The IC50 [5] was no more than 10 µM.
With `Cc1cccc(NC(=O)Nc2cccc(C(=O)c3c[nH]c4ncccc34)c2)c1` [Compound P-1719, 1-[3-(1H-Pyrrolo[2,3-b]pyridine-3-carbonyl)-phenyl]-3-m-tolyl-urea] the IC50 [2] was no more than 10 µM, the IC50 [3] was no more than 10 µM and the IC50 [4] was no more than 10 µM. It also gave an IC50 [5] of no more than 10 µM.
